Values joined by “and” are separate entries in the source; they are usually repeats but may differ in a detail not shown here. Identical values can stand only once.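 Cultured in 96-well plates, cells were exposed to test compound for 48 hours across five concentrations. GI50 = concentration required for 50% inhibition of growth. Definition used: TGI = concentration required for complete inhibition of growth.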
Tests used:
Experiment in all cases: NCI anticancer screen, dose series, 48 h
[1] = system: 786-0 renal
[2] = system: MDA-MB-231 breast
[3] = system: MOLT-4 leukemia
[4] = system: NCI-H460 lung
[5] = system: NCI/ADR-RES ovarian
[6] = system: SK-MEL-2 melanoma
[7] = system: T-47D breast
[8] = system: U251 CNS
[9] = system: UO-31 renal

SMILES	TGI [1]	TGI [2]	TGI [3]	TGI [4]	TGI [5]	TGI [6]	TGI [7]	TGI [8]	TGI [9]	GI50 [4]	GI50 [7]	GI50 [9]
O=C1NC2CCCCC2N=C1/C(C(=O)c1ccccc1)=C(\O)c1ccccc1 (stereo not given)	> 100 µM	83 µM	79.3 µM	> 100 µM	> 100 µM	> 100 µM	> 100 µM	> 100 µM	78.7 µM			
CC(NNC(=O)c1ccncc1)c1ccc(Cl)c(Cl)c1 (stereo not given)	> 100 µM	> 100 µM	> 100 µM	> 100 µM	> 100 µM	> 100 µM	> 100 µM	> 100 µM	> 100 µM			
COc1cc(C(c2cccc3ccccc23)N2C(=O)CCC2C(=O)NCc2ccccc2)cc(OC)c1OC (stereo not given)	> 100 µM	> 100 µM	> 100 µM	> 100 µM	> 100 µM	> 100 µM	> 100 µM	> 100 µM	> 100 µM			
N#Cc1c(Nc2nc3ccccc3s2)c2ccccc2n2c1nc1ccccc12	> 100 µM	> 100 µM	> 100 µM	> 100 µM	> 100 µM	> 100 µM	> 100 µM	> 100 µM	> 100 µM			
CSc1nc(C#N)c(N)n1C	> 100 µM	> 100 µM	> 100 µM	> 100 µM	> 100 µM	> 100 µM	> 100 µM	> 100 µM	> 100 µM			
Cc1nn(C)c2nc3ccc(Cl)cc3c(-c3ccccc3)c12	> 100 µM	> 100 µM	> 100 µM	> 100 µM	> 100 µM	> 100 µM	> 100 µM	> 100 µM	> 100 µM			
CCCCc1ccc(-n2sc3ncccc3c2=O)cc1	25.2 µM	32 µM	57.7 µM	26 µM	43.9 µM	43.9 µM	45.7 µM	42.7 µM	34.7 µM			
CC(C)C(C/C=C1/CC(CO)(COC(=O)C2CCCCC2)OC1=O)C(C)C (stereo not given)	26.9 µM	37.4 µM	94.8 µM	89.6 µM	42.7 µM	> 100 µM	45.9 µM	43.9 µM	33.1 µM			
COc1ccc2c(c1OC)C(=O)O[C@@H]2[C@H]1c2cc3c(cc2CCN1C)OCO3	> 100 µM	> 100 µM	> 100 µM	> 100 µM	> 100 µM	> 100 µM	> 100 µM	> 100 µM	> 100 µM			
CCOC(=O)C(NC(=O)CC)(Nc1ccc(S(=O)(=O)Nc2nc(C)cc(C)n2)cc1)C(F)(F)F (stereo not given)	> 100 µM	> 100 µM	> 100 µM	> 100 µM	> 100 µM	> 100 µM	> 100 µM	> 100 µM	> 100 µM			
COc1ccc(/C(=N/Nc2nc3ccccc3[nH]2)C(=O)O)cc1	> 100 µM	> 100 µM	> 100 µM	> 100 µM	> 100 µM	> 100 µM	> 100 µM	> 100 µM	> 100 µM			
[N-]=[N+]=NC[C@H]1OCO[C@H](CN=[N+]=[N-])[C@H]2OCCOCCOc3ccccc3OCCOCCO[C@@H]21	> 100 µM	> 100 µM	> 100 µM	> 100 µM	> 100 µM	> 100 µM	> 100 µM	> 100 µM	> 100 µM			
C=CC(C)(C)c1cc([C@@H]2COc3cc(O)ccc3C2=O)c(O)c(O)c1OC	31.6 µM	57.5 µM	> 100 µM	> 100 µM	64.3 µM	45.8 µM	62.3 µM	40.6 µM	35.4 µM			
ONC1=Nc2ccccc2OCc2cc(Br)c(Br)cc2COc2ccccc2N=C1NO	> 44.3 µM	35.5 µM	> 31.3 µM	30.2 µM	> 53.7 µM	38.7 µM	31.1 µM	41.8 µM	> 54.4 µM			
Cc1cc(S(=O)(=O)Nc2nc3ccccc3n2-c2ccccc2)c(S)cc1Cl	> 100 µM	> 100 µM	> 100 µM	> 100 µM	> 100 µM	> 100 µM	> 100 µM	> 100 µM	> 100 µM			
Cc1ccc(OCC2OC(n3cnc4c(Cl)ncnc43)CC2Oc2ccc(C)cc2)cc1 (stereo not given)	> 73.4 µM and 51.7 µM	17.8 µM and 30.6 µM	12.7 µM and 7.95 µM	18.3 µM and > 48.5 µM	36.5 µM and 40.8 µM	30.2 µM and 33.8 µM	49.5 µM and > 100 µM	11 µM and > 50.4 µM	15.8 µM and 3.29 µM	3.71 µM and 13.4 µM	8.39 µM and 29.2 µM	8.08 µM and 1.84 µM
COC(=O)/C=C/c1cc(OC)c2oc(-c3ccc(OC)c(OC)c3)c(C(=O)OC)c2c1	> 100 µM	> 100 µM	> 100 µM	> 100 µM	> 100 µM	> 100 µM	> 100 µM	> 100 µM	> 100 µM			
Cc1ccc(S(=O)(=O)c2ccc([N+](=O)[O-])o2)cc1	3.26 µM	4.78 µM	> 100 µM	33.4 µM	5.36 µM	28.7 µM	6.24 µM	17.7 µM	2.78 µM			

— PubChem BioAssay (NCI)
